Data set [1] can be described thus: saturation concentration / solubility of salicylic acid in solvent. Type of data set: physicochemical. The following applies: solution temperature of 25° C.
The conditions of data set [2]: cited from earlier work.

In the case of `O=C(O)c1ccccc1O` [salicylic acid, 2-hydroxybenzoic acid], the “saturation concentration of salicylic acid in ethanol” value in data set [1] is reported as over 30 wt %. Moreover, the solubility in water result in data set [2] was “relatively insoluble in water”.

The record behind these values is patent US6869611B1, “Composition and method of effecting superficial chemical skin peels” (priority 1996, dated 2005).
